Key:
HepG2 cells [1] = experiment: MTT cytotoxicity assay, with CI-isobologram analysis of mixtures; format: cell-based, human; settings: for reduction of cell viability at the higher concentration tested: MTT, highest concentration of the combination experiment
HepG2 cells [2] = experiment: resazurin reduction cytotoxicity assay, with CI-isobologram analysis of mixtures; format: cell-based, human
[3] = IC50 from MTT individual cytotoxicity experiments, used to set combination ratios, 24 h, read-out: IC50 Concentration
[4] = MTT method, HepG2, 24 h, median-effect equation, read-out: Dm (median-effect concentration)
[5] = HepG2, 24 h, resazurin, highest concentration of the combination experiment
[6] = HepG2, 24 h exposure, resazurin assay, spread in brackets, read-out: IC50
[7] = resazurin method, HepG2, 24 h, median-effect equation, read-out: Dm (median-effect concentration)
[8] = read-out: Dm (median-effect concentration)

SMILES | reduction of cell viability at the higher concentration tested (HepG2 cells [1]; HepG2, 24 h) | IC50 (HepG2 cells [1]; [3]) | IC50 (HepG2 cells [1]; [4]) | reduction of cell viability at the higher concentration tested (HepG2 cells [2]; [5]) | IC50 (HepG2 cells [2]; [6]) | IC50 (HepG2 cells [2]; [7]) | IC50 (HepG2 cells [1]; [8]) | IC50 (HepG2 cells [1]; read-out: IC50 Concentration) | reduction of cell viability at the higher concentration tested (HepG2 cells [2]) | IC50 (HepG2 cells [2]; [8]) | IC50 (HepG2 cells [2]; read-out: IC50) | IC50 (HepG2 cells [1]; Homo sapiens, HepG2, IC50 from MTT individual cytotoxicity experiments, used to set combination ratios, 24 h, read-out: IC50 Concentration) | IC50 (HepG2 cells [1]; Homo sapiens, MTT method, HepG2, 24 h, median-effect equation, read-out: Dm (median-effect concentration)) | IC50 (HepG2 cells [2]; Homo sapiens, HepG2, 24 h exposure, resazurin assay, spread in brackets, read-out: IC50) | IC50 (HepG2 cells [2]; Homo sapiens, resazurin method, HepG2, 24 h, median-effect equation, read-out: Dm (median-effect concentration))
CO/C=C(/C(=O)OC)c1ccccc1Oc1cc(Oc2ccccc2C#N)ncn1 [AZX, azoxystrobin] | 43% | 206 µM | 284 µM | 27% | 231 µM | 638 µM | – | – | – | – | – | – | – | – | –
CC(=O)OC[C@]12C[C@H](OC(=O)CC(C)C)C(C)=C[C@H]1O[C@@H]1[C@H](O)[C@@H](OC(C)=O)[C@@]2(C)[C@]12CO2 [T2, T-2 toxin] | – | – | – | – | – | – | 0.06 µM | 0.059 µM | 40% | 0.1 µM | 0.051 µM | – | – | – | –
C[C@@H]1Cc2c(Cl)cc(C(=O)N[C@@H](Cc3ccccc3)C(=O)O)c(O)c2C(=O)O1 [OTA, ochratoxin A] | 59% | – | – | 44% | – | – | – | – | – | – | – | 195 µM | 57.1 µM | 147 µM | 87.6 µM
CC1=C[C@H]2O[C@@H]3[C@H](O)C[C@](C)([C@@]2(CO)[C@H](O)C1=O)[C@]31CO1 [DON, deoxynivalenol] | 69% | 9.39 µM | 2.74 µM | 59% | 6.61 µM | 5.33 µM | – | – | – | – | – | – | – | – | –
